Experimental data taken from patent publication US20250115598A1 (Anaxis Pharma Pty Ltd, priority 2021, published 2025).
Like-named read-outs stand apart in the source and are kept apart here.

Experiments:
[1] = test system: Immortalised Mouse Dermal Fibroblasts (MDFs); experiment: Cellular assay: inhibition of TSI induced necroptosis, CellTitre-Glo viability; details: Mus musculus, Fibroblast, MDF, 3 hours TSI cocktail, read-out: Inhibition of TSI-induced necroptosis (IC50 cell-based assay) in MDF
Method: Cellular Assay: Screening Compounds for Inhibition of TSI Induced Necroptosis in, 384 Well Plate Format.
• Cell Line ID: Immortalised Mouse Dermal Fibroblasts (MDFs). • Cell Concentration (cells/well): Final cell density is 2200 cells per well. • Cell growth medium: DMEM medium+7.4% Fetal Bovine Serum (FBS). Cells are cultured in Corning 150 cm^2 tissue culture flasks with vented caps at 37° C./10% CO2. • Incubation: Plates were incubated for 30 minutes following addition of compounds and then 3 hours incubation with death stimuli (TSI cocktail) at 37° C./10% CO2 in a humidified incubator. • Compound concentration: 36 μM starting concentration, 1:3 dilution, 10 point • DMSO final concentration (% v/v): 0.3%. Compounds in TSI Cocktail (T: TNF; S: Smac Mimetic; I: IDN-6556) and their Final Concentrations: • rhTNF (100 ng/ml) • Compound a (500 nM)—Smac Mimetic, Tetralogic and SYNthesis Med Chem • IDN-6556 (10 μM)—Selleckchem (S7775)
The cellular assay was carried out according to the following steps: • 1. Each well was prepared by sequential addition of: • a. 40 μL of cell suspension (5.5×10^4 cells/mL) was added to each well to provide a final cell concentration of 2,200 cells per well. • b. After 24 hours, DMSO (control; columns 1-2 and 23-24) or compound in DMSO—addition was performed using acoustic transfer of nL volumes of stock compound to give final test concentrations of 36, 12, 4, 1.3, 0.44, 0.148, 0.049, 0.016, 0.005 and 0.002 μM. All wells were backfilled with DMSO to a final total volume in the well of 100 nL. • c. Following compound/DMSO addition in step (b), Plates were incubated for 30 minutes at 37° C./10% CO2 in a humidified incubator and then 10 μL of 5×TSI cocktail (except to positive controls; columns 2 and 24) was added to each well. • 2. After 3 hours, plate was removed from the 37° C. incubator and equilibrated to room temperature for 15 minutes. • 3. 15 μL of room temperatured CellTitre-Glo2™ (Promega™) was added to each well. • 4. Shook plates for 2 minutes (˜600 rpm) and incubated at room temperature for 15 minutes to allow signal to stabilise. • 5. Read luminescence readout on a plate reader.
Percent viability was calculated for each compound according to equation (2):
[formula] • Wherein RawData is the readout of any cell containing a compound of the invention.
TA is the total activity provided by the luminescence readout from DMSO only wells (columns 2 and 24)=100% viability.
NSA is the non-specific activity provided by DMSO+TSI wells (columns 1 and 23)=0% viability • Curve fitting: 10-point titration curves are fitted with the 4-parameter logistic nonlinear regression model and the IC50 reported is the inflection point of the curve • Analysis: Data was loaded into Dotmatics™ and visualised using the Tibco@ • Spotfire™ software. 10 point titration curves were fitted with the 4 parameter logistic nonlinear regression model and the IC50 reported reflect the inflection point of the curve for curve fitting.
Assay involving the TSI cocktail (T: TNF; S: Smac mimetic; I: IDN-6556): TSI treatment ensures that cells specifically undergo necroptotic cell death. TNF activates the TNF receptor, Smac mimetic directs the signal away from proinflammatory signaling and toward the RIPK1/RIPK3-mediated cell death pathways, and IDN-6556 (Caspase inhibitor) ensures that the apoptotic response is blocked leaving only the programmed necrosis response. The compounds' activity (solution in DMSO) tested in this TSI-induced assay was evaluated by determining the number of viable cells in culture by measuring the amount of ATP present as measured by CelltiterGlo.

human RIPK1 = human RIPK1 (Homo sapiens (Human), UniProt Q13546); experiment: KINOMEscan binding assay, human RIPK1; details: Table 21
Chain of human RIPK1 (Q13546 whole entry): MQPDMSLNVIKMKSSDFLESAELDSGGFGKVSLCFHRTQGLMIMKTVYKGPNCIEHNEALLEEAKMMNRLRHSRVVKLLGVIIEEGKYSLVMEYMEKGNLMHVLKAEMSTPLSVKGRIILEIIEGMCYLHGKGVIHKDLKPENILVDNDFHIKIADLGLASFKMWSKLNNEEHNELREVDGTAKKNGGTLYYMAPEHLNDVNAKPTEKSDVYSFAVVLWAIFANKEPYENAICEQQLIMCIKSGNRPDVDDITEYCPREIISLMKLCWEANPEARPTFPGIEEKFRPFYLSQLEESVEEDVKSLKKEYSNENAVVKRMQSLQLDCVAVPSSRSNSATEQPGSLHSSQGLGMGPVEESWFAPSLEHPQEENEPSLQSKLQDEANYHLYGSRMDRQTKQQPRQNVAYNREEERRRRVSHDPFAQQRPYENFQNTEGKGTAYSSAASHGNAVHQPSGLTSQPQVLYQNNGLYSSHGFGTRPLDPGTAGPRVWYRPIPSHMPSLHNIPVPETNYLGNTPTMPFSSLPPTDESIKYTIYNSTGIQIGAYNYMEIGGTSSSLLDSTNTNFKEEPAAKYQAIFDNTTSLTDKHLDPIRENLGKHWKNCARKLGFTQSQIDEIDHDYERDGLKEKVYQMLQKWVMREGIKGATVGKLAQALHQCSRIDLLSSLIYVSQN
How it was run: (§1)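 Assay principle: test compound competes with immobilized bead ligand for kinase; kinase retained, then eluted, is counted by qPCR. Conditions were 1% DMSO final with 11 compound concentrations in 3-fold steps, 30,000 nM top for most. The Hill equation with slope −1 gave Kd.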

human RIPK3 = human RIPK3 (Homo sapiens (Human), UniProt Q9Y572); experiment: KINOMEscan binding assay, human RIPK3; details: Table 21
Chain of human RIPK3 (Q9Y572 whole entry): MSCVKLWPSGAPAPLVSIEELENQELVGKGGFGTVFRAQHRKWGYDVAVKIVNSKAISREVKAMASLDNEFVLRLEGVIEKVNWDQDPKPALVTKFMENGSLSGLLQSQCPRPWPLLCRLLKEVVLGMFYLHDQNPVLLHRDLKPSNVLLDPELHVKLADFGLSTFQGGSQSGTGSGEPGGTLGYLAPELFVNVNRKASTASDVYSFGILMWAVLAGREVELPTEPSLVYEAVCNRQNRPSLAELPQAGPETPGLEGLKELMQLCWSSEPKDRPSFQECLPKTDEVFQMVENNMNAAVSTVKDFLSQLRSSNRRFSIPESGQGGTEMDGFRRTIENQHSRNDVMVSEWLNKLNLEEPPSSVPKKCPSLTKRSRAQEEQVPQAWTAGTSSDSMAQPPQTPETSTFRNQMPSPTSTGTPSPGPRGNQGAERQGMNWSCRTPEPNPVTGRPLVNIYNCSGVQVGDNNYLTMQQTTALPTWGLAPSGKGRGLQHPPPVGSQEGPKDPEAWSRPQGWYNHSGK
How it was run: as §1

human MLKL (full length) = human MLKL (full length) (Homo sapiens (Human), UniProt Q8NB16); experiment: KINOMEscan binding assay, human MLKL (full length)
Chain of human MLKL (full length) (Q8NB16 whole entry): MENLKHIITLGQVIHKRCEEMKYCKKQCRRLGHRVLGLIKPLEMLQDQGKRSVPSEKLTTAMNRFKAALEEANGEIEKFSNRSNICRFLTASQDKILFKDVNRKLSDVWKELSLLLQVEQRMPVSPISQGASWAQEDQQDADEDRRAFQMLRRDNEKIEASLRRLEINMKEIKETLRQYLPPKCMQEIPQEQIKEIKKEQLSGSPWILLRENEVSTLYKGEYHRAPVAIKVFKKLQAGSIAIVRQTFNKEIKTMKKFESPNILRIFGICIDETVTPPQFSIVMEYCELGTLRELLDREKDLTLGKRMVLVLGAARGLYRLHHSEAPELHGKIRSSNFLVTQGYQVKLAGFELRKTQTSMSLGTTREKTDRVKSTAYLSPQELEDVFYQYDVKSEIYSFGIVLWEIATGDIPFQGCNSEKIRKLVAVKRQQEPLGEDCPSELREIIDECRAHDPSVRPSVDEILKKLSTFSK
How it was run: as §1

[2] = KINOMEscan, Table 21, read-out: Human MLKL (full-length) (KD)

In the case of `C[C@H](Oc1cc(-c2nn(C)c3c(C#CC4CCN(C)CC4)cnc(N)c23)ccc1NS(=O)(=O)C(F)F)c1ccc(F)cc1` [Compound 80, (S)—N-(4-(4-amino-1-methyl-7-((1-methylpiperidin-4-yl)ethynyl)-1H-pyrazolo[4,3-c]pyridin-3-yl)-2-(1-(4-fluorophenyl)ethoxy)phenyl)-1,1-difluoromethanesulfonamide], the IC50 ([1]; Table 24) is reported as < 1 µM, the Kd (human RIPK1) is reported as > 10 µM and the Kd (human RIPK3) is reported as > 10 µM. The Kd (human MLKL (full length); [2]) was < 0.001 µM.
For `C[C@H](Oc1cc(-c2nn(C)c3c(-c4cnn(C5CCC(C)(C)N(C)C5)c4)cnc(N)c23)ccc1NS(=O)(=O)C(F)F)c1ccc(F)cc1` (some centres unmarked) [Compound 104, N-(4-{4-amino-1-methyl-7-[1-(1,6,6-trimethylpiperidin-3-yl)-1H-pyrazol-4-yl]-1H-pyrazolo[4,3-c]pyridin-3-yl}-2-[(1 S)-1-(4-fluorophenyl)ethoxy]phenyl)-1,1-difluoromethanesulfonamide], the IC50 ([1]; Table 24) was < 1 µM, the Kd (human RIPK1) was > 10 µM and the Kd (human RIPK3) was > 10 µM. The Kd (human MLKL (full length); [2]) was < 0.001 µM.
In the case of `CC(=O)N1CCC(n2cc(-c3cnc(N)c4c(-c5ccc(NS(=O)(=O)C(F)F)c(O[C@@H](C)c6ccc(F)cc6)c5)nn(C)c34)cn2)CC1` [Compound 109, (S)—N-(4-(7-(1-(1-acetylpiperidin-4-yl)-1H-pyrazol-4-yl)-4-amino-1-methyl-1H-pyrazolo[4,3-c]pyridin-3-yl)-2-(1-(4-fluorophenyl)ethoxy)phenyl)-1,1-difluoromethanesulfonamide], the IC50 ([1]; Table 24) is reported as < 1 µM, the Kd (human RIPK1) is reported as > 10 µM and the Kd (human RIPK3) is reported as > 10 µM. The Kd (human MLKL (full length); [2]) was < 0.001 µM.
With `CC1C(n2cc(-c3cnc(N)c4c(-c5ccc(NS(=O)(=O)C(F)F)c(O[C@@H](C)c6ccc(F)cc6)c5)nn(C)c34)cn2)CN1C` (stereo partly drawn) [Compound 147, N-(4-(4-amino-7-(1-(1,2-dimethylazetidin-3-yl)-1H-pyrazol-4-yl)-1-methyl-1H-pyrazolo[4,3-c]pyridin-3-yl)-2-((S)-1-(4-fluorophenyl)ethoxy)phenyl)-1,1-difluoromethanesulfonamide] the IC50 ([1]; Table 24) was < 1 µM, the Kd (human RIPK1) was > 10 µM and the Kd (human RIPK3) was > 10 µM.
In the case of `C[C@H](Oc1cc(-c2nn(C)c3c(-c4cnn(C5CCN(C)C(C(F)(F)F)C5)c4)cnc(N)c23)ccc1NS(=O)(=O)C(F)F)c1ccc(F)cc1` (stereo partly drawn) [Compound 148, N-(4-(4-amino-1-methyl-7-(1-(1-methyl-2-(trifluoromethyl)piperidin-4-yl)-1H-pyrazol-4-yl)-1H-pyrazolo[4,3-c]pyridin-3-yl)-2-((S)-1-(4-fluorophenyl)eth-oxy)phenyl)-1,1-difluoromethane-sulfonamide], the IC50 ([1]; Table 24) is reported as < 1 µM, the Kd (human RIPK1) is reported as > 10 µM and the Kd (human RIPK3) is reported as > 10 µM.
For `C[C@H](Oc1cc(-c2nn(C)c3c(-c4cnn(C5CC6CCC(C5)N6CC(F)(F)F)c4)cnc(N)c23)ccc1NS(=O)(=O)C(F)F)c1ccc(F)cc1` (stereo partly drawn) [Compound 153, N-(4-(4-amino-1-methyl-7-(1-(8-(2,2,2-trifluoroethyl)-8-azabicyclo[3.2.1]octan-3-yl)-1H-pyrazol-4-yl)-1H-pyrazolo[4,3-c]pyridin-3-yl)-2-((S)-1-(4-fluorophenyl)ethoxy)phenyl)-1,1-difluoromethanesulfonamide], the IC50 ([1]; Table 24) was < 1 µM, the Kd (human RIPK1) was > 10 µM and the Kd (human RIPK3) was > 10 µM.
`C[C@H](Oc1cc(-c2nn(C)c3c(-c4cnn(C5CCN(CCc6cccc7c6C(=O)N(C6CCC(=O)NC6=O)C7=O)CC5)c4)cnc(N)c23)ccc1NS(=O)(=O)C(F)F)c1ccc(F)cc1` (stereo partly drawn) [Compound 1136, N-(4-{4-amino-7-[1-(1-{2-[2-(2,6-dioxopiperidin-3-yl)-1,3-dioxo-2,3-dihydro-1H-isoindol-4-yl]ethyl}piperidin-4-yl)-1H-pyrazol-4-yl]-1-methyl-1H-pyrazolo[4,3-c]pyridin-3-yl}-2-[(1S)-1-(4-fluorophenyl)ethoxy]phenyl)-1,1-difluoromethanesulfonamide] was tested, and the IC50 ([1]; Table 27) was 1 to 10 µM and the Kd (human MLKL (full length); hMLKL, Table 25, read-out: MLKL (KD)) was < 0.01 µM.
